The source of these data is PubChem BioAssay (NCI).

Values joined by “and” are separate entries in the source; they are usually repeats but may differ in a detail not shown here. Identical values can stand only once.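 96-well plates; 48 h exposure; 5 concentrations. Endpoints by linear interpolation between flanking doses. Not reached: highest tested concentration assigned. The concentration for 50% growth inhibition is given as GI50. TGI marks complete inhibition of growth.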

Among the test systems are CCRF-CEM leukemia; HCC-2998 colon; HOP-62 NSCLC; HT29 colon; LOX IMVI melanoma; MDA-MB-231 breast; NCI-H23 lung; SNB-75 CNS; T-47D breast; UO-31 renal.
What all share (experiment): NCI tumour cell line growth inhibition, 48 h

With `O=[N+]([O-])c1ccc(C2CC(c3ccccc3)=Nc3ccccc3S2)cc1` (centres undefined), the GI50 in the assay with CCRF-CEM leukemia is 4.66 µM; in the assay with HCC-2998 colon it was over 100 µM; in the assay on HOP-62 NSCLC, 97.1 µM; in the assay with HT29 colon it was 7.62 µM; in the assay with LOX IMVI melanoma it was 3.68 µM; with MDA-MB-231 breast, over 100 µM. Further, the GI50 is over 100 µM in the assay on NCI-H23 lung, 8.55 µM in the assay on SNB-75 CNS, over 100 µM in the assay on T-47D breast and 3.8 µM with UO-31 renal. The TGI in the assay with CCRF-CEM leukemia, with HCC-2998 colon, with HOP-62 NSCLC, in the assay with HT29 colon, in the assay on LOX IMVI melanoma and in the assay on MDA-MB-231 breast was over 100 µM in each case. The TGI in the assay on NCI-H23 lung, with SNB-75 CNS, in the assay with T-47D breast and in the assay on UO-31 renal was over 100 µM throughout.
As for `CC/C(=C(/c1ccc(O)cc1)c1ccc(OCCN)cc1)c1ccccc1`, the GI50 was 2.87 µM in the assay on CCRF-CEM leukemia; 1.95 µM with HCC-2998 colon; 3.3 µM in the assay with HOP-62 NSCLC; 2.49 µM in the assay with HT29 colon; 1.76 µM in the assay on LOX IMVI melanoma; 1.98 µM in the assay on MDA-MB-231 breast. The GI50 in the assay with NCI-H23 lung is 4.56 µM; in the assay on SNB-75 CNS, 1.86 µM; in the assay on T-47D breast it was 1.67 µM; with UO-31 renal it was 2.72 µM. For the same compound, the TGI in the assay on CCRF-CEM leukemia came to 8.77 µM; in the assay on HCC-2998 colon, 3.72 µM; in the assay with HOP-62 NSCLC, 10.7 µM; in the assay with HT29 colon, 5.78 µM; with LOX IMVI melanoma it was 3.23 µM; with MDA-MB-231 breast, 5.23 µM. In addition, the TGI in the assay with NCI-H23 lung is 16.5 µM; with SNB-75 CNS it was 12.1 µM; with T-47D breast, 5.94 µM; in the assay with UO-31 renal, 8.57 µM.
Regarding `NC(N)=NC(N)=Nc1cnccn1`, the TGI in the assay on CCRF-CEM leukemia, with HCC-2998 colon, in the assay with HOP-62 NSCLC, in the assay on HT29 colon, in the assay with LOX IMVI melanoma and with MDA-MB-231 breast was over 100 µM throughout. In addition, the TGI with NCI-H23 lung, in the assay with SNB-75 CNS, with T-47D breast and in the assay with UO-31 renal was over 100 µM each time.
On to `CC1=CCCC2C1(C)CCC(C)C2(C)Cc1cc(O)ccc1O` (centres undefined), for which the GI50 is 3.76 µM in the assay with CCRF-CEM leukemia; 15.6 µM in the assay on HCC-2998 colon; 15.2 µM in the assay on HOP-62 NSCLC; 14.2 µM with HT29 colon; 3.6 µM with LOX IMVI melanoma; 7.38 µM in the assay on NCI-H23 lung. Moreover, the TGI in the assay with CCRF-CEM leukemia is > 37.1 µM and 5.88 µM; with HCC-2998 colon, 30 µM and 24.6 µM; in the assay with HOP-62 NSCLC it was 28.9 µM and 35.7 µM; with HT29 colon, 29.6 µM and 37.1 µM; in the assay on LOX IMVI melanoma, 16.2 µM and 16.3 µM; in the assay on MDA-MB-231 breast, 21.5 µM. For the same compound, the TGI was 20.4 µM and 17.5 µM in the assay on NCI-H23 lung; 20.5 µM and 21.7 µM with SNB-75 CNS; 27.3 µM in the assay on T-47D breast; 19.1 µM and 15.4 µM in the assay on UO-31 renal.
Regarding `CCCc1cc(=O)n2c(C(=O)Nc3cccc(C(=O)OCC)c3)c(C(=O)Nc3ccc(F)cc3)sc2n1`, the GI50 is over 140 µM with CCRF-CEM leukemia; over 140 µM with HCC-2998 colon; 3.54 µM in the assay with HOP-62 NSCLC; 87.9 µM in the assay on HT29 colon; 6.65 µM in the assay on LOX IMVI melanoma; 1.6 µM in the assay with MDA-MB-231 breast. The GI50 is 66.3 µM in the assay with NCI-H23 lung, 3.54 µM in the assay with SNB-75 CNS, 13.5 µM with T-47D breast and 7.27 µM with UO-31 renal. For the same compound, the TGI was over 140 µM in the assay with CCRF-CEM leukemia; over 140 µM in the assay on HCC-2998 colon; 28.8 µM in the assay on HOP-62 NSCLC; over 140 µM in the assay on HT29 colon; over 140 µM in the assay on LOX IMVI melanoma; 7.2 µM with MDA-MB-231 breast. Further, the TGI with NCI-H23 lung is over 140 µM; in the assay on SNB-75 CNS it was 17.5 µM; in the assay with T-47D breast it was over 140 µM; in the assay on UO-31 renal, 42.6 µM.
Turning to `N=C(N)SCc1c2ccccc2c(CSC(=N)N)c2ccccc12`, the GI50 in the assay on CCRF-CEM leukemia is 4.7 µM; in the assay on HCC-2998 colon, 11.3 µM; in the assay on HOP-62 NSCLC it was 10.5 µM; in the assay with HT29 colon, 5.94 µM; in the assay with LOX IMVI melanoma it was 1.4 µM; with MDA-MB-231 breast it was 12 µM. Further, the GI50 is 4.04 µM in the assay with NCI-H23 lung, 12.2 µM with SNB-75 CNS, 3.97 µM in the assay with T-47D breast and 14.1 µM in the assay with UO-31 renal. Further, the TGI with CCRF-CEM leukemia is 36.1 µM; in the assay with HCC-2998 colon, 23.7 µM; with HOP-62 NSCLC, 26.5 µM; in the assay on HT29 colon, 21.9 µM; in the assay on LOX IMVI melanoma, 21.9 µM; in the assay with MDA-MB-231 breast, 45.1 µM. In addition, the TGI in the assay with NCI-H23 lung was 20.5 µM; with SNB-75 CNS, 26.9 µM; in the assay with T-47D breast it was 22.1 µM; with UO-31 renal, 34.5 µM.
As to `O=C1NC2C(=CC(O)C(O)C2O)c2cc3c(cc21)OCO3` (centres undefined), the GI50 in the assay on CCRF-CEM leukemia was 0.154 µM and 0.115 µM; in the assay with HCC-2998 colon, 0.179 µM; in the assay with HOP-62 NSCLC, 0.277 µM and 0.191 µM; in the assay with HT29 colon, 0.273 µM; in the assay on LOX IMVI melanoma, 0.115 µM; in the assay on NCI-H23 lung it was 0.325 µM and 0.205 µM. For the same compound, the GI50 with SNB-75 CNS was 0.165 µM and 0.291 µM; with UO-31 renal, 0.279 µM and 0.264 µM. Also, the TGI in the assay on CCRF-CEM leukemia was 0.875 µM and 3.55 µM; in the assay on HCC-2998 colon, 1.38 µM and 1.67 µM; in the assay on HOP-62 NSCLC, 1.82 µM and 1.84 µM; in the assay on HT29 colon it was 3.58 µM and 5.95 µM; in the assay on LOX IMVI melanoma it was 0.67 µM and 1.53 µM; in the assay with MDA-MB-231 breast, 2.39 µM. Also, the TGI was 2 µM and 2.84 µM in the assay with NCI-H23 lung; 0.953 µM and 4.31 µM and 4 µM in the assay on SNB-75 CNS; 1.5 µM in the assay on T-47D breast; 2.29 µM and 2.41 µM with UO-31 renal.
Regarding `CCOC(=O)Nc1nc2ccc(Br)cc2s1`, the GI50 in the assay with CCRF-CEM leukemia, in the assay with HCC-2998 colon, with HOP-62 NSCLC, in the assay on HT29 colon, in the assay on LOX IMVI melanoma and with MDA-MB-231 breast was over 50 µM in each case. In addition, the GI50 in the assay with NCI-H23 lung, with SNB-75 CNS, with T-47D breast and in the assay with UO-31 renal was over 50 µM throughout. In addition, the TGI in the assay on CCRF-CEM leukemia, in the assay with HCC-2998 colon, in the assay with HOP-62 NSCLC, with HT29 colon, with LOX IMVI melanoma and in the assay with MDA-MB-231 breast was over 50 µM throughout. The TGI in the assay with NCI-H23 lung, with SNB-75 CNS, in the assay on T-47D breast and with UO-31 renal was over 50 µM each time.
